Source: US6664297B1, “Methods for inhibition and dissolution of amyloidoses by administration of compositions comprising 2,4-dinitrophenol” (priority 2000, dated 2003)
Where a name gives a salt, the structure may show the parent alone.

What was measured:
[1] = target: T1, Aβ1-42 (Homo sapiens, UniProt P05067); experiment: Disaggregation of aggregated Aβ1-42 followed by 90° light scattering; assay type: biochemical; conditions: for inhibition at 200 µM: read-out: % decrease in light scattering; for IC50: aggregated Aβ1-42, light scattering measured 1.5 hour after addition, 23° C., read-out: IC50 for disaggregation of Aβ
T1 construct: purchased Bachem Inc; host or cells: synthetic peptide
T1 sequence (P05067 672-713): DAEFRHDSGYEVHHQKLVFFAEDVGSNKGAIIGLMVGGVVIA
Description: (§1) Aβ peptides of different chain-lengths (Bachem Inc., Torrance, Calif., USA) were freshly dissolved from lyophilized powder in 50% (v/v) trifluoroethanol (TFE) in PBS. Aggregation was triggered by dilution of aliquots from the stock solution into PBS (resulting in ≦0.5% (v/v) residual TFE), and was followed as a function of time by light scattering measurements. Light scattering was measured in sealed cuvettes at 500 nm on ISS Inc. (Champaign, Ill., USA) PC1 or Hitachi F-4500 spectrofluorometers. […] Low temperature experiments were performed using a thermostated cell holder and flushing the cell compartment with N2 to avoid condensation. All results shown represent equilibrium light scattering values obtained for each sample.
Concentrated peptide stock solutions were prepared in 50% (v/v) trifluoroethanol. Aggregation was triggered by dilution in phosphate-buffered saline (PBS) and was followed by means of light-scattering measurements (FIGS. 1A, 1B, 1C), thioflavin T fluorescence (not shown) and electron microscopy (FIG. 2). Equilibrium light scattering values were used as an index of the extent of aggregation under different experimental conditions.
One class of compounds we tested were the nitrophenols. The disaggregation of Aβ1-42 by nitrophenols was determined. 3-nitrophenol (NP; O) or 2,4-dinitrophenol (DNP; □) were added to aggregated samples prepared as described above. Light scattering intensities were measured 1.5 hour after addition of the drugs. Symbols represent averages±S.D. from 3 experiments.
Further results for a series of aromatic compounds are shown in Table 1, at aromatic compound concentrations of 200 micromolar.

[2] = target: T2, Aβ1-28 (Homo sapiens, UniProt P05067); experiment: Disaggregation of fibrillar Aβ1-28 by GdnHCl, light scattering; assay type: biochemical; conditions: Aβ1-28 10 μM, 1 hour incubation
T2 construct: purchased Bachem Inc; host or cells: synthetic peptide
T2 sequence (P05067 672-699): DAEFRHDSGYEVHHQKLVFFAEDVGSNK
Description: as §1
(§2) Stabilities of the fibrillar amyloid aggregates of peptides Aβ1-28, Aβ1-42 and Aβ1-43 in the presence of guanidine hydrochloride were compared. Measurements of the reduction in light scattering intensity as a function of the concentration of guanidine hydrochloride were used as an index of amyloid aggregate dissolution. Samples were incubated for 1 hour in the presence of the indicated concentrations of GdnHCl prior to measurements. Different symbols correspond to Aβ1-28 (□), Aβ1-42 (O) and Aβ1-43 (Δ), and represent averages±S.D. from 3-5 determinations.

[3] = target: T1, Aβ1-42; experiment: Disaggregation of fibrillar Aβ1-42 by GdnHCl, light scattering; assay type: biochemical; conditions: Aβ1-42 10 μM, 1 hour incubation
Description: as §1, §2

[4] = tested on: hippocampal neurons; experiment: Cell viability of hippocampal neuron cultures by trypan blue exclusion; conditions: no Aβ
Description: Hippocampi from 18-day-old rat embryos were dissected and cultured as previously described by Martins et al., Nat. Med., 3, 1376-82, 1997) with minor modifications. Cells were plated on glass coverslips previously coated with 1.5 μg/ml polyornithine (Sigma) in Basal Eagle's Medium (Gibco) enriched with 10% fetal calf serum (Hyclone) for the first 24 hours of culture. After that, proliferation of nonneuronal cells was inhibited with 10 μM arabinosyl cytoside and the serum concentration was lowered to 2%. Aβ1-42 (44 μM), in the absence or in the presence of nitrophenols, was added after 48 hours of culture and kept for three days. Control cultures consisting of neurons cultured in growth medium alone or in the presence of residual TFE (0.5% v/v) were also prepared. Daily observations were carried out during this period.
Cell viability in cultures incubated with or without Aβ (as described above) was assessed by trypan blue exclusion. Immediately before counting, the medium was removed, cultures were washed once with PBS and incubated for 5 min with 0.4% trypan blue. Randomly chosen fields were counted in a Zeiss Televal microscope. Percentages of live neurons are expressed relative to the total number of neurons observed in each field. Five independent fields were counted for each experimental condition (which were carried out in triplicate).

[5] = target: T3, amyloid deposits (Homo sapiens, UniProt P05067); experiment: Rat model of cerebral Aβ deposition (intrahippocampal co-injection); assay type: in vivo; conditions: 3 nmol Aβ1-42 co-injected with DNP 0.76 mM into hippocampus; 8 days; n=4, p=0.05
T3 construct: purchased Bachem Inc; host or cells: synthetic peptide
T3 sequence (P05067 672-713): as the sequence (P05067 672-713) above
Description: To evaluate the effects of nitrophenols as inhibitors of amyloid deposition in vivo, we used a rat model of cerebral Aβ deposition. Aβ was injected alone or in the presence of DNP into the left or right hippocampi of rats, respectively, and the areas occupied by amyloid deposits in either side were measured on consecutive sections stained with thioflavin S. The experimental protocol used was designed to minimize the influence of individual variability in animal response by injecting Aβ into one hemisphere and Aβ plus DNP into the other hemisphere for each individual rat.
Male adult Wistar rats (280-320 g) were anesthetized with chloropent (3.3 ml/kg) and placed into a stereotaxic frame. The left hippocampus (standard coordinates: A 5.0; L 2.0; H 6.8) was injected with 3 nmol of Aβ1-42 (from a previously diluted stock in 55 μl of PBS containing 9% DMSO). A volume of 1.5 μl was administered at a constant flow rate during a time period of 15 minutes. […] Images were analyzed with ScionImage to measure the areas occupied by amyloid aggregates.
FIG. 5A is a schematic diagram of the injection protocol and representative hippocampal sections visualized by Thioflavine-S staining or autofluorescence, as indicated. FIGS. 5B-5E show quantitative analysis of the area of amyloid deposits in consecutive hippocampal sections as described above. […]

[6] = target: T1, Aβ1-42; experiment: Transmission electron microscopy of Aβ1-42 fibril formation; assay type: biochemical
Description: Aggregated samples were also examined by transmission electron microscopy. In this case, Aβ (22 μM) was incubated in PBS in the absence or in the presence of nitrophenols, as indicated. After 48 hours, samples were stained with 1% uranyl acetate.
Confirmation that the light scattering intensity measurements were in fact related to the formation of amyloid fibrilar aggregates was made by transmission electron microscopy analysis using uranyl acetate staining.
An Aβ1-42 sample incubated for 2 days in the presence of 20 μM DNP is shown in FIG. 2C (Magnification: 52,500×).

[7] = tested on: hippocampal neurons; experiment: Aβ neurotoxicity in hippocampal neuron cultures, morphology by anti-Tau immunostaining; assay type: cell-based, rat; conditions: Aβ1-42 44 μM, 72 hours
Description: In order to evaluate the efficacy of the phenol derivatives, control assays were also performed in the absence of the aromatic or heteroaromatic compounds described herein.
Med., 3, 1376-82, 1997) with minor modifications. […] Daily observations were carried out during this period.
Aβ1-42 (44 μM) was added to the culture medium containing neurons and incubation was continued for 72 hours. […] Furthermore, the remaining cell bodies of Aβ-treated neurons were attached to the plate, but their neurites were retracted and thin, and sometimes detached from the plate.

[8] = aromatic compound concentration 200 micromolar

## Cc1ccc(O)cc1C [3,4-dimethyl-phenol]
[1]; [8]
  inhibition at 200 µM: 40%

## Nc1cc([N+](=O)[O-])ccc1O [2-amino-4-nitrophenol]
[1]; [8]
  inhibition at 200 µM: 92%

## Nc1ccc([N+](=O)[O-])cc1O [2-amino-5-nitrophenol]
[1]; [8]
  inhibition at 200 µM: 44%

## Oc1ccc(Cl)cc1 [4-chloro-phenol]
[1]; [8]
  inhibition at 200 µM: 20%

## O=[N+]([O-])c1ccc(Br)cc1 [4-bromo-nitrobenzene]
[1]; [8]
  % decrease in light scattering: 37%

## N=C(N)N [GdnHCl, guanidine hydrochloride]
[2]
  GdnHCl concentration for complete disaggregation: 3 M
[3]
  GdnHCl concentration for full disaggregation: 5 to 6 M

## O=[N+]([O-])c1ccc(O)c([N+](=O)[O-])c1 [2,4-dinitrophenol]
[4]; 20 μM DNP
  effect of compound alone on survival of neurons in culture: no effects
[5]
  reduction in the volume of amyloid deposits relative to Aβ injected alone: 86±17%
[6]; Aβ1-42 22 μM incubated 2 days in PBS with 20 μM DNP
  fibrils seen by electron microscopy: completely devoid of fibrils
[1]; DNP 20 μM
  light scattering from Aβ suspensions (disaggregation of fibrillar amyloid): completely abolished light scattering
[1]
  IC50: ~7 µM
[1]; [8]
  inhibition at 200 µM: 100%
[7]; 20 μM DNP
  protection against Aβ neurotoxicity (neuron morphology): marked protection against neurotoxicity

## COc1ccc([N+](=O)[O-])cc1 [4-nitro-anisole]
[1]; [8]
  inhibition at 200 µM: 49%

## CCc1ccc(O)cc1 [4-ethyl-phenol]
[1]; [8]
  inhibition at 200 µM: 0%

## Oc1ccc(Br)cc1 [4-bromo-phenol]
[1]; [8]
  inhibition at 200 µM: 25%

## Nc1cc(Cl)ccc1O [2-amino-4-chlorophenol]
[1]; [8]
  inhibition at 200 µM: 12%

## COc1ccc(N)cc1 [4-amino-anisole]
[1]; [8]
  inhibition at 200 µM: 48%

## Nc1cccc(O)c1 [3-amino-phenol]
[1]; [8]
  inhibition at 200 µM: 18%

## O=[N+]([O-])c1cccc(O)c1 [3-nitrophenol]
[4]; 100 μM NP
  effect of compound alone on survival of neurons in culture: no effects
[6]; Aβ1-42 22 μM incubated 2 days in PBS with 100 μM NP
  fibrils seen by electron microscopy: completely devoid of fibrils
[1]
  IC50: ~80 µM
[1]; [8]
  inhibition at 200 µM: 60%
[7]; 100 μM NP
  protection against Aβ neurotoxicity (neuron morphology): marked protection against neurotoxicity
